The record followed here is patent US20090143279A1 (priority 2007, published 2009).

For one assay, the system named is mtOXPHOS transcripts. It counts as cell-based, mouse. Particulars: for mitoOX (composite Z-score): normalized score vs mock-treated (DMSO) wells.
For the next assay, the system named is OXPHOS gene expression. The class given is cell-based, mouse. Conditions: for GE-HTS (composite Z-score): normalized score vs mock-treated (DMSO) wells.
A further assay concerns cytochrome c. The class given is cell-based, mouse. Particulars: for cyt c (composite Z-score): normalized score vs mock-treated (DMSO) wells.
The subject of the next assay is nuOXPHOS transcripts. The class given is cell-based, mouse. Particulars: for nucOX (composite Z-score): normalized score vs mock-treated (DMSO) wells.
The next assay relates to C2C12 myotubes. Particulars: for Viability (composite Z-score): normalized score vs mock-treated (DMSO) wells.
For assay [1], the system named is mitochondrial membrane potential. The class given is cell-based, mouse. Conditions: for ΔΨm (composite Z-score): normalized score vs mock-treated (DMSO) wells.
Assay [2] concerns cellular dehydrogenase activity. Conditions: for MTT (composite Z-score): normalized score vs mock-treated (DMSO) wells.
The next assay relates to reactive oxygen species. It counts as cell-based, mouse. Particulars: for ROS (composite Z-score): normalized score vs mock-treated (DMSO) wells.
The mark [3] stands for this setting: normalized composite Z-score vs mock-treated (DMSO) wells, Conc 20 μM.
[4] abbreviates: Table 4, C2C12 myotubes, 48 h, composite Z-score.
The mark [5] stands for this setting: composite Z-score vs DMSO wells, Conc 20 μM.
The mark [6] stands for this setting: composite Z-score vs mock-treated (DMSO) wells, Conc 20 μM.
The mark [7] stands for this setting: composite Z-score vs DMSO, Conc 20 μM.
Setting [8] is: 20 μM, composite Z-score vs DMSO.

Where two headings read alike, the source gives them in different places.

For the compound `COc1cc2c(cc1OC)C1C(=O)c3c(cc4c(c3O)C=CC(C)(C)O4)OC1CO2` (stereo not drawn) [beta-toxicarol, reference compound], the mitoOX in the assay on mtOXPHOS transcripts (setting [3]) is −0.627. Moreover, the GE-HTS in the assay with OXPHOS gene expression (setting [3]) is listed as −1.508. Also, in the assay on cytochrome c (setting [3]), the cyt c is −0.239. Moreover, the nucOX in the assay with nuOXPHOS transcripts (setting [3]) was −1.773. The Viability in the assay with C2C12 myotubes (setting [4]) and in the assay on C2C12 myotubes (setting [3]) was 0.672 throughout. The ΔΨm in assay [1] (Table 4, C2C12 myotubes, 48 h, JC-1, composite Z-score) is 0.899; in assay [1] (setting [3]) it was 0.899. Further, the MTT in assay [2] (setting [4]) and in assay [2] (setting [3]) was −1.498 each time. The ROS in the assay on reactive oxygen species (setting [4]) and in the assay with reactive oxygen species (setting [3]) was −0.188 throughout.

`CC[C@@]1(O)C[C@H](O[C@H]2C[C@H](N(C)C)[C@H](O)[C@H](C)O2)c2c(cc3c(c2O)C(=O)c2c(O)cccc2C3=O)[C@H]1C(=O)OC` [aklavine] returned a mitoOX with mtOXPHOS transcripts (setting [5]) of 1.063. The GE-HTS with OXPHOS gene expression (setting [5]) came to 0.706. Further, the cyt c with cytochrome c (setting [5]) is listed as −5.658. In the assay with nuOXPHOS transcripts (setting [5]), the nucOX is 0.430. For the same compound, the Viability in the assay with C2C12 myotubes (setting [5]) was −2.971. Further, the ΔΨm in assay [1] (setting [5]) is recorded as −3.626. The MTT in assay [2] (setting [5]) was −6.213. For the same compound, the ROS in the assay on reactive oxygen species (setting [5]) is −2.347.

As to `COc1ccc2c(c1)C1(C)CCC(=O)CC1CC2` (stereo not drawn), the mitoOX in the assay with mtOXPHOS transcripts (setting [3]) was −0.652. Also, the GE-HTS in the assay on OXPHOS gene expression (setting [3]) is reported as −0.632. In the assay on cytochrome c (setting [3]), this compound came in with a cyt c of 0.380. Further, the nucOX in the assay with nuOXPHOS transcripts (setting [3]) is listed as −0.582. The Viability in the assay with C2C12 myotubes (setting [3]) is given as −0.071. In assay [1] (setting [3]), the ΔΨm is listed as −0.173. Further, the MTT in assay [2] (setting [3]) was −2.008. Also, in the assay on reactive oxygen species (setting [3]), the ROS is 1.860.

Take `CC(=O)OC1CC2C(C)(C)[C@@H](O)CC[C@]2(C)C2CC[C@]3(C)[C@H](c4ccoc4)OC(=O)[C@H]4O[C@]43[C@]12C` (stereo partly drawn) [3beta-hydroxydeoxodihydrogedunin]: in the assay on mtOXPHOS transcripts (setting [6]), the mitoOX is on record as −0.302. Besides, the GE-HTS in the assay with OXPHOS gene expression (setting [6]) is recorded as −0.585. Also, the cyt c in the assay with cytochrome c (setting [6]) was determined as 0.591. The nucOX in the assay on nuOXPHOS transcripts (setting [6]) is listed as −0.648. For the same compound, in the assay with C2C12 myotubes (setting [6]), the Viability is reported as −0.364. For the same compound, the ΔΨm in assay [1] (setting [6]) was found to be 0.674. Further, the MTT in assay [2] (setting [6]) is listed as −0.540. In the assay with reactive oxygen species (setting [6]), this compound came in with an ROS of 0.170.

`CC(=O)O[C@@H]1CC2C(C)(CC[C@H](O)C2(C)C)C2CC[C@]3(C)C(=CC(=O)O[C@H]3c3ccoc3)C21C` (stereo partly drawn) [3beta-hydroxydeoxodihydrodeoxygedunin]: in the assay with mtOXPHOS transcripts (Conc 20 μM), the “mitoOX (composite Z-score)” value is listed as −0.359. Besides, the “GE-HTS (composite Z-score)” value with OXPHOS gene expression (Conc 20 μM) was −0.747. Besides, the “cyt c (composite Z-score)” value with cytochrome c (Conc 20 μM) came to 0.142. Further, in the assay with nuOXPHOS transcripts (Conc 20 μM), the “nucOX (composite Z-score)” value is −0.849. In the assay on C2C12 myotubes (Conc 20 μM), the “Viability (composite Z-score)” value is −1.397. Besides, in assay [1] (Conc 20 μM), the “ΔΨm (composite Z-score)” value worked out at 1.048. Further, in assay [2] (Conc 20 μM), the “MTT (composite Z-score)” value is listed as −0.656. In addition, the “ROS (composite Z-score)” value with reactive oxygen species (Conc 20 μM) came to 1.488.

In the assay with mtOXPHOS transcripts, `CN[C@H]1CC[C@@H](c2ccc(Cl)c(Cl)c2)c2ccccc21` [sertraline] registered a mitoOX of 0.020. Moreover, the GE-HTS in the assay on OXPHOS gene expression was −1.068. For the same compound, the cyt c in the assay with cytochrome c was −1.121. The nucOX with nuOXPHOS transcripts is recorded as −1.476. Also, the Viability in the assay on C2C12 myotubes amounted to 0.279. In addition, the ΔΨm in assay [1] came to 0.420. Besides, the MTT in assay [2] is reported as −1.905. The compound also showed an ROS in the assay on reactive oxygen species of 0.090.

Compound `COc1cc(C(C)=O)cc(OC)c1O` [acetosyringone] displayed a mitoOX with mtOXPHOS transcripts (setting [7]) of 0.201. The same compound showed a GE-HTS in the assay on OXPHOS gene expression (setting [7]) of 0.029. The compound further returned a cyt c with cytochrome c (setting [7]) of 0.310. Besides, the nucOX in the assay with nuOXPHOS transcripts (setting [7]) is listed as −0.040. Also, the Viability in the assay with C2C12 myotubes (setting [7]) is recorded as −0.432. In assay [1] (setting [7]), the ΔΨm is listed as −0.370. In addition, the MTT in assay [2] (setting [7]) is recorded as −1.266. In the assay on reactive oxygen species (setting [7]), this compound had an ROS of 0.269.

In the case of `C[C@]12CCC(=O)C=C1CC[C@@H]1[C@@H]2C(=O)C[C@@]2(C)[C@H]1CC[C@]2(O)C(=O)CO` [cortisone], the mitoOX with mtOXPHOS transcripts (setting [7]) was −0.830. In the assay on OXPHOS gene expression (setting [7]), the GE-HTS is −0.428. The cyt c in the assay with cytochrome c (setting [7]) is recorded as −0.078. Moreover, the nucOX in the assay on nuOXPHOS transcripts (setting [7]) is given as −0.165. Also, the Viability in the assay on C2C12 myotubes (setting [7]) is given as 0.644. In addition, the ΔΨm in assay [1] (setting [7]) was −0.232. Further, the MTT in assay [2] (setting [7]) is −0.146. In the assay on reactive oxygen species (setting [7]), this compound showed an ROS of 0.527.

On to `CC(=O)N[C@@H](CC(C)C)C(=O)O` [acetyl-L-leucine], for which, in the assay with mtOXPHOS transcripts (setting [5]), the mitoOX came to 0.088. The GE-HTS in the assay on OXPHOS gene expression (setting [5]) amounted to 0.328. Further, the cyt c with cytochrome c (setting [5]) was found to be 0.267. For the same compound, the nucOX in the assay on nuOXPHOS transcripts (setting [5]) worked out at 0.438. Also, the Viability in the assay on C2C12 myotubes (setting [5]) is reported as −0.465. In addition, the ΔΨm in assay [1] (setting [5]) is listed as −0.575. Also, the MTT in assay [2] (setting [5]) is −0.804. This compound displayed an ROS with reactive oxygen species (setting [5]) of 1.139.

`CC(C)=CCc1c(O)cc2occ(-c3ccc4c(c3)OCO4)c(=O)c2c1O` [derrubone] gave a mitoOX in the assay on mtOXPHOS transcripts (setting [7]) of 0.066. The GE-HTS in the assay on OXPHOS gene expression (setting [7]) was −0.409. Also, the cyt c in the assay with cytochrome c (setting [7]) is −0.126. Besides, in the assay with nuOXPHOS transcripts (setting [7]), the nucOX is listed as −0.626. The Viability in the assay with C2C12 myotubes (setting [7]) is listed as −0.568. Also, in assay [1] (setting [7]), the ΔΨm is −1.272. In addition, the MTT in assay [2] (setting [7]) is −0.499. The ROS with reactive oxygen species (setting [7]) is on record as 1.419.

Turning to `CC(NCCC(c1ccccc1)c1ccccc1)c1ccccc1` (stereo not drawn) [fendiline], the mitoOX in the assay on mtOXPHOS transcripts (setting [5]) was −0.951. In addition, in the assay on OXPHOS gene expression (setting [5]), the GE-HTS is recorded as −1.005. The cyt c is reported as −0.405 with cytochrome c and −0.752 in the assay with cytochrome c (setting [5]). The nucOX in the assay with nuOXPHOS transcripts (setting [5]) is listed as −0.896. The Viability in the assay with C2C12 myotubes (setting [5]) is recorded as −0.080. Also, the ΔΨm in assay [1] (setting [5]) was −1.174. The MTT in assay [2] (setting [5]) was −1.007. Further, the ROS in the assay on reactive oxygen species (setting [5]) is 0.912.

Consider `CC(C)(Sc1cc(C(C)(C)C)c(O)c(C(C)(C)C)c1)Sc1cc(C(C)(C)C)c(O)c(C(C)(C)C)c1` [probucol], for which, in the assay on mtOXPHOS transcripts (setting [5]), the mitoOX was −0.136. Further, the GE-HTS in the assay with OXPHOS gene expression (setting [5]) is given as −0.053. In addition, the cyt c in the assay with cytochrome c is −0.232; in the assay with cytochrome c (setting [5]), −0.180. Also, the nucOX with nuOXPHOS transcripts (setting [5]) is reported as −0.002. Also, in the assay on C2C12 myotubes (setting [5]), the Viability is −0.586. In assay [1] (setting [5]), the ΔΨm was −0.142. Further, the MTT in assay [2] (setting [5]) is reported as −1.114. Besides, in the assay with reactive oxygen species (setting [5]), the ROS is on record as 0.464.

Regarding `CN(C)c1nc(N(C)C)nc(N(C)C)n1` [altretamine], the mitoOX worked out at 0.972 in the assay on mtOXPHOS transcripts and 0.069 in the assay with mtOXPHOS transcripts (setting [8]). Further, the GE-HTS with OXPHOS gene expression stood at 0.884; in the assay on OXPHOS gene expression (setting [8]), 0.379. Besides, the cyt c in the assay with cytochrome c is reported as 0.040; in the assay on cytochrome c (setting [8]), −0.631. Besides, the nucOX in the assay on nuOXPHOS transcripts amounted to 0.750; in the assay with nuOXPHOS transcripts (setting [8]), 0.488. In addition, the Viability in the assay with C2C12 myotubes is −0.533; with C2C12 myotubes (setting [8]) it was −0.315. In addition, the figures for the ΔΨm in assay [1] and in assay [1] (setting [8]) were −0.440 and −0.322, respectively. Moreover, the MTT in assay [2] was −0.442; in assay [2] (setting [8]) it was −1.416. The ROS in the assay with reactive oxygen species worked out at 0.462; with reactive oxygen species (setting [8]) it was 0.103.

For `CC(=O)O[C@@H]1CC2C(C)(C)[C@H](O)C=C[C@]2(C)C2CC[C@]3(C)C(=CC(=O)O[C@H]3c3ccoc3)[C@@]21C` (stereo partly drawn) [3-alpha-hydroxydeoxygedinin], in the assay with mtOXPHOS transcripts (Conc 20 μM), the “mitoOX (composite Z-score)” value is given as −0.939. For the same compound, in the assay on OXPHOS gene expression (Conc 20 μM), the “GE-HTS (composite Z-score)” value was −1.171. Besides, in the assay with cytochrome c (Conc 20 μM), the “cyt c (composite Z-score)” value is −0.321. In the assay with nuOXPHOS transcripts (Conc 20 μM), the “nucOX (composite Z-score)” value is reported as −1.202. Moreover, in the assay with C2C12 myotubes (Conc 20 μM), the “Viability (composite Z-score)” value amounted to 0.156. For the same compound, the “ΔΨm (composite Z-score)” value in assay [1] (Conc 20 μM) is on record as 1.760. For the same compound, the “MTT (composite Z-score)” value in assay [2] (Conc 20 μM) is on record as −0.319. Also, the “ROS (composite Z-score)” value in the assay on reactive oxygen species (Conc 20 μM) was determined as 0.531.
